In US11986471B2, “Compounds and methods of use” (Tango Therapeutics, Inc., priority 2018, dated 2024):

How the values were obtained:
HAP1 MTAP-deleted = assay: SDMA in-cell western assay, HAP1 MTAP-deleted cell line; format: cell-based; conditions: for IC50: Homo sapiens, HAP1 MTAP-deleted cell line; for MTAP Intact/Deleted Ratio: IC50 ratio HAP1 MTAP-intact / HAP1 MTAP-deleted
Summary of the method: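 In-cell western for SDMA marks; MTAP-deleted (null) HAP1 background; values given as IC50.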

PRMT5 [1] = target: T1, PRMT5 (Homo sapiens, UniProt O14744); assay: PRMT5 IC50 assay in the presence of SAM as cofactor; format: biochemical
T1 construct: purchased Viva (custom protein)
Summary of the method: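 IC50 against PRMT5 determined with SAM as cofactor, with no cofactor, and with MTA as cofactor. Ki derived as IC50/1.5 for the SAM assay and IC50/13.5 for the MTA assay; SAM Ki to MTA Ki ratio also reported.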

PRMT5 [2] = target: T1, PRMT5; assay: PRMT5 IC50 assay with no cofactor; format: biochemical; conditions: read-out: No Co-factor IC50
Summary of the method: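 Values reflect IC50 (μM) on human PRMT5 under three cofactor states. Selectivity is derived as the quotient of SAM-state Ki over MTA-state Ki, with each Ki obtained from its IC50.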

PRMT5 [3] = target: T1, PRMT5; assay: PRMT5 IC50 assay in the presence of MTA as cofactor; format: biochemical; conditions: for IC50: PRMT5, MTA as cofactor; for SAM/MTA Ratio: ratio between Ki in the presence of SAM and Ki in the presence of MTA
Summary of the method: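 MTA-dependent versus SAM-dependent inhibition of human PRMT5 was assessed by IC50; conversion factors of 13.5 and 1.5 gave the corresponding Ki.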

HAP1 MTAP-intact = assay: SDMA in-cell western assay, HAP1 MTAP-intact cell line; format: cell-based; conditions: Homo sapiens
Summary of the method: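 Using an MTAP-isogenic HAP1 cell pair, inhibition of SDMA formation is read by in-cell western and expressed as IC50. MTAP-selectivity is assigned where the ratio between lines reaches 3 fold or greater.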

T1 sequence (O14744 whole entry): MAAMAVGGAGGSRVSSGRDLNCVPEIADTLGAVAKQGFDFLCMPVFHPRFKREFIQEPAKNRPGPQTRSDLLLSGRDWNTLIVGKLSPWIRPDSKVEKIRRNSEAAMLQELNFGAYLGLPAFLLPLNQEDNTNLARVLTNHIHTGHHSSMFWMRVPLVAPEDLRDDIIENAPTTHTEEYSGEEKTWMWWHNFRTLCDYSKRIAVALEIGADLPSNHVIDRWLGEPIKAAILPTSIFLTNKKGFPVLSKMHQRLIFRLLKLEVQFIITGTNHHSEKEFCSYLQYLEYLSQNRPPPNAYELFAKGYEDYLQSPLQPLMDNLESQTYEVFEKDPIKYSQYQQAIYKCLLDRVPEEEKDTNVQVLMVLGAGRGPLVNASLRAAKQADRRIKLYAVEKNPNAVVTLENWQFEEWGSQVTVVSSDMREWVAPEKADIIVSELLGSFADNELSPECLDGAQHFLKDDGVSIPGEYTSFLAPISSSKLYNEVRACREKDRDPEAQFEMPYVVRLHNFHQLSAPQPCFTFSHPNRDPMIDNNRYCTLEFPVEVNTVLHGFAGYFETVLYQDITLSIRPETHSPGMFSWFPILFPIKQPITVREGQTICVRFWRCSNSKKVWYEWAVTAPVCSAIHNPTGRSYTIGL
T1 sequence (Q9BQA1 whole entry partner): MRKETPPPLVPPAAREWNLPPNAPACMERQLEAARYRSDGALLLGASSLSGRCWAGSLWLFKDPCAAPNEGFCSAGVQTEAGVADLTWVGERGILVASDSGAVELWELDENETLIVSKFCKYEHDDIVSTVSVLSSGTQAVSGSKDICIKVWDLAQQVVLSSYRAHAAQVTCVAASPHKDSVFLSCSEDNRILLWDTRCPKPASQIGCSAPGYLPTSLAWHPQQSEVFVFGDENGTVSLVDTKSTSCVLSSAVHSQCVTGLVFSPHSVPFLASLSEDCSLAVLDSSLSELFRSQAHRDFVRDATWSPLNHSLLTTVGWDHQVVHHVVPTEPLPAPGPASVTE

SMILES | IC50 (HAP1 MTAP-deleted) [nM] | IC50 (PRMT5 [1]) [nM] | IC50 (PRMT5 [2]) [nM] | IC50 (PRMT5 [3]) [nM] | IC50 (HAP1 MTAP-intact) [nM] | MTAP Intact/Deleted Ratio (HAP1 MTAP-deleted) | SAM/MTA Ratio (PRMT5 [3])
CC(C)Cc1cc(C(=O)NC[C@H](O)CN2CCc3c(ccc(OCc4cnco4)c3Cl)C2)cc(NC2CCC2)n1 [Compound 287] | ≥ 10000 | 500 to 5000 | ≥ 5000 | 500 to 5000 | ≥ 10000 | C* (an IC50 ratio of less than 3 fold between the IC50 in the HAP1 MTAP-intact cell line and the HAP1 MTAP-deleted cell line) | A (a Ki ratio greater than or equal to 10 fold between the Ki in the presence of SAM and the Ki in the presence of MTA)
O=C(NC[C@H](O)CN1CCc2cc(OCc3cnco3)ccc2C1)c1cc(NC2CCC2)nc(N2CCOCC2)c1 [Compound 292, (S)-2-(cyclobutylamino)-N-(2-hydroxy-3-(6-(oxazol-5-ylmethoxy)-3,4-dihydroisoquinolin-2(1H)-yl)propyl)-6-morpholinoisonicotinamide] | 1000 to 10000 | 50 to 500 | 500 to 5000 | 50 to 500 | ≥ 10000 | C* (an IC50 ratio of less than 3 fold between the IC50 in the HAP1 MTAP-intact cell line and the HAP1 MTAP-deleted cell line) | A (a Ki ratio greater than or equal to 10 fold between the Ki in the presence of SAM and the Ki in the presence of MTA)
CC(C)N1CCN(c2nc(NC3COC3)cc(C(=O)NC[C@H](O)CN3CCc4c(ccc(OCc5cnco5)c4Cl)C3)n2)CC1 [Compound 293, (S)—N-(3-(5-chloro-6-(oxazol-5-ylmethoxy)-3N-dihydroisoquinolin-2(1H)-yl)-2-hydroxypropyl)-2-(4-isopropylpiperazin-1-yl)-6-(oxetan-3-ylamino)pyrimidine-4-carboxamide] | ≥ 10000 | 500 to 5000 | 500 to 5000 | 50 to 500 | ≥ 10000 | C* (an IC50 ratio of less than 3 fold between the IC50 in the HAP1 MTAP-intact cell line and the HAP1 MTAP-deleted cell line) | A (a Ki ratio greater than or equal to 10 fold between the Ki in the presence of SAM and the Ki in the presence of MTA)
CC(C)N1CCN(c2nc(NC3COC3)cc(C(=O)NC[C@H](O)CN3CCc4cc(OCc5cnco5)ccc4C3)n2)CC1 [Compound 296, (S)—N-(2-hydroxy-3-(6-(oxazol-5-ylmethoxy)-3N-dihydroisoquinolin-2(1H)-yl)propyl)-2-(4-isopropylpiperazin-1-yl)-6-(oxetan-3-ylamino)pyrimidine-4-carboxamide] | 1000 to 10000 | 50 to 500 | 500 to 5000 | 50 to 500 | ≥ 10000 | C* (an IC50 ratio of less than 3 fold between the IC50 in the HAP1 MTAP-intact cell line and the HAP1 MTAP-deleted cell line) | A (a Ki ratio greater than or equal to 10 fold between the Ki in the presence of SAM and the Ki in the presence of MTA)
O=C(NC[C@H](O)CN1CCc2c(ccc(OCc3cnco3)c2Cl)C1)c1cc(NC2COC2)nc(N2CCN(C(=O)C3CC3)CC2)n1 [Compound 297, (S)—N-(3-(5-chloro-6-(oxazol-5-ylmethoxy)-3N-dihydroisoquinolin-2(1H)-yl)-2-hydroxypropyl)-2-(4-(cyclopropanecarbonyl)piperazin-1-yl)-6-(oxetan-3-ylamino)pyrimidine-4-carboxamide] | 1000 to 10000 | 50 to 500 | 500 to 5000 | 50 to 500 | ≥ 10000 | C* (an IC50 ratio of less than 3 fold between the IC50 in the HAP1 MTAP-intact cell line and the HAP1 MTAP-deleted cell line) | A (a Ki ratio greater than or equal to 10 fold between the Ki in the presence of SAM and the Ki in the presence of MTA)
O=C(NC[C@H](O)CN1CCc2c(ccc(OCc3cnco3)c2Cl)C1)c1cc(NC2COC2)nc(N2CCOCC2)n1 [Compound 298, (S)—N-(3-(5-chloro-6-(oxazol-5-ylmethoxy)-3,4-dihydroisoquinolin-2(1H)-yl)-2-hydroxypropyl)-2-morpholino-6-(oxetan-3-ylamino)pyrimidine-4-carboxamide] | 1000 to 10000 | 500 to 5000 | ≥ 5000 | 500 to 5000 | ≥ 10000 | C* (an IC50 ratio of less than 3 fold between the IC50 in the HAP1 MTAP-intact cell line and the HAP1 MTAP-deleted cell line) | A (a Ki ratio greater than or equal to 10 fold between the Ki in the presence of SAM and the Ki in the presence of MTA)

Second part, led by results:

IC50 (HAP1 MTAP-deleted) [nM] | IC50 (PRMT5 [1]) [nM] | IC50 (PRMT5 [2]) [nM] | IC50 (PRMT5 [3]) [nM] | IC50 (HAP1 MTAP-intact) [nM] | SMILES | MTAP Intact/Deleted Ratio (HAP1 MTAP-deleted) | SAM/MTA Ratio (PRMT5 [3])
1000 to 10000 | 50 to 500 | 500 to 5000 | 50 to 500 | 1000 to 10000 | CCN1CCN(c2cc(C(=O)NC[C@H](O)CN3CCc4cc(OCc5cnco5)ccc4C3)cc(NC3CCC3)n2)CC1 [Compound 286] | B* (an IC50 ratio greater than or equal to 3 fold but lower than 10 fold between the IC50 in the HAP1 MTAP-intact cell line and the HAP1 MTAP-deleted cell line) | A (a Ki ratio greater than or equal to 10 fold between the Ki in the presence of SAM and the Ki in the presence of MTA)
1000 to 10000 | 500 to 5000 | ≥ 5000 | 50 to 500 | ≥ 10000 | O=C(NC[C@H](O)CN1CCc2c(ccc(OCc3cnco3)c2Cl)C1)c1cc(NC2CCC2)nc(N2CCOCC2)c1 [Compound 288, (S)—N-(3-(5-chloro-6-(oxazol-5-ylmethoxy)-3N-dihydroisoquinolin-2(1H)-yl)-2-hydroxypropyl)-2-(cyclobutylamino)-6-morpholinoisonicotinamide] | C* (an IC50 ratio of less than 3 fold between the IC50 in the HAP1 MTAP-intact cell line and the HAP1 MTAP-deleted cell line) | A (a Ki ratio greater than or equal to 10 fold between the Ki in the presence of SAM and the Ki in the presence of MTA)
1000 to 10000 | 50 to 500 | 500 to 5000 | 50 to 500 | 1000 to 10000 | CCN(C)c1nc(NC2COC2)cc(C(=O)NC[C@H](O)CN2CCc3cc(OCc4cnco4)ccc3C2)n1 [Compound 289] | B* (an IC50 ratio greater than or equal to 3 fold but lower than 10 fold between the IC50 in the HAP1 MTAP-intact cell line and the HAP1 MTAP-deleted cell line) | A (a Ki ratio greater than or equal to 10 fold between the Ki in the presence of SAM and the Ki in the presence of MTA)
1000 to 10000 | 50 to 500 | 500 to 5000 | 50 to 500 | 1000 to 10000 | O=C(NC[C@H](O)CN1CCc2cc(OCc3cnco3)ccc2C1)c1cc(NC2COC2)nc(N2CCN(C(=O)C3CC3)CC2)n1 [Compound 290, (S)-2-(4-(cyclopropanecarbonyl)piperazin-1-yl)-N-(2-hydroxy-3-(6-(oxazol-5-ylmethoxy)-3,4-dihydroisoquinolin-2(1H)-yl)propyl)-6-(oxetan-3-ylamino)pyrimidine-4-carboxamide] | B* (an IC50 ratio greater than or equal to 3 fold but lower than 10 fold between the IC50 in the HAP1 MTAP-intact cell line and the HAP1 MTAP-deleted cell line) | A (a Ki ratio greater than or equal to 10 fold between the Ki in the presence of SAM and the Ki in the presence of MTA)
1000 to 10000 | 50 to 500 | 500 to 5000 | 50 to 500 | 1000 to 10000 | O=C(NC[C@H](O)CN1CCc2cc(OCc3cnco3)ccc2C1)c1ccc(OC2CCN(Cc3ccccc3)CC2)cc1 [Compound 291, (S)-4-((1-benzylpiperidin-4-yl)oxy)-N-(2-hydroxy-3-(6-(oxazol-5-ylmethoxy)-3,4-dihydroisoquinolin-2(1H)-yl)propyl)benzamide] | C* (an IC50 ratio of less than 3 fold between the IC50 in the HAP1 MTAP-intact cell line and the HAP1 MTAP-deleted cell line) | –
< 1000 | 50 to 500 | 500 to 5000 | 50 to 500 | 1000 to 10000 | CCCN(C)c1nc(NC2COC2)cc(C(=O)NC[C@H](O)CN2CCc3cc(OCc4cnco4)ccc3C2)n1 [Compound 294, (S)—N-(2-hydroxy-3-(6-(oxazol-5-ylmethoxy)-3,4-dihydroisoquinolin-2(1H)-yl)propyl)-2-(methyl(propyl)amino)-6-(oxetan-3-ylamino)pyrimidine-4-carboxamide] | C* (an IC50 ratio of less than 3 fold between the IC50 in the HAP1 MTAP-intact cell line and the HAP1 MTAP-deleted cell line) | A (a Ki ratio greater than or equal to 10 fold between the Ki in the presence of SAM and the Ki in the presence of MTA)
< 1000 | 50 to 500 | 500 to 5000 | 50 to 500 | < 1000 | COCCN(C)c1nc(NC2COC2)cc(C(=O)NC[C@H](O)CN2CCc3cc(OCc4cnco4)ccc3C2)n1 [Compound 295, (S)—N-(2-hydroxy-3-(6-(oxazol-5-ylmethoxy)-3N-dihydroisoquinolin-2(1H)-yl)propyl)-2-((2-methoxyethyl)(methyl)amino)-6-(oxetan-3-ylamino)pyrimidine-4-carboxamide] | C* (an IC50 ratio of less than 3 fold between the IC50 in the HAP1 MTAP-intact cell line and the HAP1 MTAP-deleted cell line) | A (a Ki ratio greater than or equal to 10 fold between the Ki in the presence of SAM and the Ki in the presence of MTA)
